The record followed here is patent EP0395313B1, “Tertiary alkyl functionalized piperazine derivatives” (AMERICAN HOME PRODUCTS CORPORATION, priority 1989, dated 1990).

In test [1] the target is T1, 5-HT1A serotonin receptor (Rattus norvegicus, UniProt P19327).
T1 sequence (P19327 1-422): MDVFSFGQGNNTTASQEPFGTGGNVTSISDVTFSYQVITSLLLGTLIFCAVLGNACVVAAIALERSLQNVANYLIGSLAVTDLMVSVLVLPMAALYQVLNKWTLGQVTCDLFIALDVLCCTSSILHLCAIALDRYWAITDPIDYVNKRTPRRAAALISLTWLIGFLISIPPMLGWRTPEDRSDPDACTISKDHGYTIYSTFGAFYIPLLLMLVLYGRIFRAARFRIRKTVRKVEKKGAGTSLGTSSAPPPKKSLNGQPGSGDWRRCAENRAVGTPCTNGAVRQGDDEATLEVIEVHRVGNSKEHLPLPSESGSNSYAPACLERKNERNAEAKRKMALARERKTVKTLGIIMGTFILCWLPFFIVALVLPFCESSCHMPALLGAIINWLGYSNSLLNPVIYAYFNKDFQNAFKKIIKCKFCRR
Kind of test: displacement of [3H] 8-OH DPAT from the 5-HT1A serotonin receptor (procedure of Hall et al.). The test is classed as binding. The following applies: for IC50: [3H] 8-OH DPAT displacement, read-out: Affinity for 5HT1A Receptor IC50; for inhibition at 0.1 µM / inhibition at 1 µM: read-out: Affinity for 5HT1A Receptor % Inhibition. (In general: In a radioligand displacement assay an active substance lowers the binding of a labelled ligand.)
From the text: 8-OH DPAT (dipropylaminotetralin) from the 5-HT1A serotonin receptor by the procedure of Hall et al., J. Neurochem.

The target in another test is D2 dopamine receptor (Rattus norvegicus, UniProt P61169). Kind of test: D2 dopamine receptor binding study with 3H-spiroperiodol in homogenized limbic brain tissue. The following applies: read-out: Affinity for D2 Receptor % Inhibition. As to the method:
The D2 dopamine receptor binding study was in accordance with a modification of the procedure of Field et al., Brain Res., 136, pp. 578-584 (1977) and Yamamura et al., eds., Neurotransmitter Receptor Binding, Raven Press, N.Y. (1978), wherein homogenized limbic brain tissue is incubated with ^3H-spiroperiodol and various concentrations of test compounds, filtered and washed and shaken with Hydrofluoro scintillation cocktail (National Diagnostics) and counted in a Packard 460CD scintillation counter.

Sequence of D2 dopamine receptor (P61169 whole entry): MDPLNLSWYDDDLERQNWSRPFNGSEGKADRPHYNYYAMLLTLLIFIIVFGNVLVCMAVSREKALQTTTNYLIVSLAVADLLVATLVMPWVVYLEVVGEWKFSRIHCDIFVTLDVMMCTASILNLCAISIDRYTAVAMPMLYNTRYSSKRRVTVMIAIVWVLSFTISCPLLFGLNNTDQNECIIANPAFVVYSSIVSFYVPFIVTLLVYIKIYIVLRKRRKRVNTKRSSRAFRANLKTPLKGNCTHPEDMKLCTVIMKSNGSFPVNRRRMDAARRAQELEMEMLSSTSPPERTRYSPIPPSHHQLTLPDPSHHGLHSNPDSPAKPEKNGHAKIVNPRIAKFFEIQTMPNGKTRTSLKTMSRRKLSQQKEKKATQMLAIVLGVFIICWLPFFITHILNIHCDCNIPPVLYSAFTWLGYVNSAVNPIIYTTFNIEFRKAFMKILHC

What is called IC50 is the midpoint of a concentration-inhibition curve. For orientation: inhibition means the change of the read-out against control, counted positive when it falls. Consider `COc1ccccc1N1CCN(CC(C(=O)NC(C)(C)C)c2ccccc2)CC1` (racemic) [Example 2, N-Tertiary-butyl 3-[4-(2-methoxyphenyl)piperazinyl]-2-phenyl-propanamide], for which, in test [1], the IC50 is 25 nM, the inhibition at 0.1 µM came to 69% and the inhibition at 1 µM was found to be 86%. The inhibition at 0.1 µM on D2 dopamine receptor (at 0.1 µM) was 8%. The inhibition at 1 µM at D2 dopamine receptor (at 1 µM) is 32%.
For the compound `COc1ccccc1N1CCN(CC(Cc2ccccc2)C(=O)NC(C)(C)C)CC1` (racemic) [Example 3, N-Tertiary-butyl 2-[[4-(2-methoxyphenyl)piperazinyl]methyl]-3-phenyl-propanamide], in test [1], the IC50 is 11.4 nM, the inhibition at 0.1 µM worked out at 90% and the inhibition at 1 µM came out at 100%. Also, the inhibition at 10 µM on D2 dopamine receptor (at 10 µM) worked out at 38%.
With `COc1ccccc1N1CCN(CCC(=O)NC2(C)CCCCC2)CC1` [Example 4, 4-(2-Methoxyphenyl)-N-(1-methylcyclohexyl)-1-piperazinepropanamide], in test [1], the inhibition at 0.1 µM is 56%.
In the case of `COc1ccccc1N1CCN(CCC(=O)NC(C)(C)C)CC1` [Example 6, N-(1,1-Dimethylethyl)-3-[4-(2-methoxyphenyl)-1-piperazinyl]-propanamide], in test [1], the IC50 was determined as 287 nM, the inhibition at 0.1 µM came out at 18% and the inhibition at 1 µM came out at 72%.
